Values of other authors as cited in US11103497B2, “Treatment of imatinib resistant leukemia” (Wyeth LLC, priority 2007, dated 2021).

System: BcrAbl T315I
Conditions: patients with amino acid mutation T315I in BcrAbl; cited from earlier work

Q: Which “effectiveness against CML” value does the source give for `Cc1cn(-c2cc(NC(=O)c3ccc(C)c(Nc4nccc(-c5cccnc5)n4)c3)cc(C(F)(F)F)c2)cn1` [nilotinob] here?
A: Its value is “not effective”.
